Source: patent US10987359B2, “Oxadiazepinone derivatives and methods of treating hepatitis B infections” (priority 2016, dated 2021)

System: HBV
Assay: HBV replication inhibition assay (BDNA assay) in HepG2.2.15 cells
Type: cell-based
Conditions: Hepatitis B virus, HepG2.2.15, HBV replication assay (BDNA assay), HepG2.2.15 cells; read-out: DNA EC50
Summary of the method: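 HepG2.2.15 cells with stably integrated HBV were treated with serially diluted compounds at 0.5% DMSO for 6 days, with medium and compound refreshed at day 3. Encapsidated HBV DNA from DNase-treated supernatant was quantified by branched DNA assay. EC50 came from % inhibition versus DMSO, fitted non-linearly.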

| Compound | EC50 |
| --- | --- |
| CCCN1CCn2nc3c(c2C(=O)N1C)CN(C(=O)Nc1ccc(F)c(C#N)c1)[C@H](C)C3 [Compound 219, (R)—N-(3-cyano-4-fluorophenyl)-2,9-dimethyl-1-oxo-3-propyl-1,2,3,4,5,8,9,11-octahydro-10H-pyrido[4′,3′:3,4]pyrazolo[5,1-d][1,2,5]triazepine-10-carboxamide] | 1 to 100 nM |
| C[C@@H]1Cc2nn3c(c2CN1C(=O)Nc1ccc(F)c(C#N)c1)C(=O)N(C)N(CCO)CC3 [Compound 220, (R)—N-(3-Cyano-4-fluorophenyl)-3-(2-hydroxyethyl)-2,9-dimethyl-1-oxo-1,2,3,4,5,8,9,11-octahydro-10H-pyrido[4′,3′:3,4]pyrazolo[5,1-d][1,2,5]triazepine-10-carboxamide] | 100 to 500 nM |
| C[C@@H]1Cc2nn3c(c2CN1C(=O)Nc1ccc(F)c(C#N)c1)C(=O)N(C)N(CC(F)F)CC3 [Compound 221, (R)—N-(3-Cyano-4-fluorophenyl)-3-(2,2-difluoroethyl)-2,9-dimethyl-1-oxo-1,2,3,4,5,8,9,11-octahydro-10H-pyrido[4′,3′:3,4]pyrazolo[5,1-d][1,2,5]triazepine-10-carboxamide] | 1 to 100 nM |
| C[C@@H]1Cc2nn3c(c2CN1C(=O)Nc1ccc(F)c(C#N)c1)C(=O)N(C)N(CCCO)CC3 [Compound 222, (R)—N-(3-Cyano-4-fluorophenyl)-3-(3-hydroxypropyl)-2,9-dimethyl-1-oxo-1,2,3,4,5,8,9,11-octahydro-10H-pyrido[4′,3′:3,4]pyrazolo[5,1-d][1,2,5]triazepine-10-carboxamide] | 100 to 500 nM |
| CC(O)CN1CCn2nc3c(c2C(=O)N1C)CN(C(=O)Nc1ccc(F)c(C#N)c1)[C@H](C)C3 (stereo partly drawn) [Compound 223, (9R)—N-(3-Cyano-4-fluorophenyl)-3-(2-hydroxypropyl)-2,9-dimethyl-1-oxo-1,2,3,4,5,8,9,11-octahydro-10H-pyrido[4′,3′:3,4]pyrazolo[5,1-d][1,2,5]triazepine-10-carboxamide] | 100 to 500 nM |
| C[C@@H]1Cc2nn3c(c2CN1C(=O)Nc1ccc(F)c(C#N)c1)C(=O)N(C)N(C)CC3 [Compound 224, (R)-N-(3-cyano-4-fluorophenyl)-2,3,9-trimethyl-1-oxo-1,2,3,4,5,8,9,11-octahydro-10H-pyrido[4′,3′:3,4]pyrazolo[5,1-d][1,2,5]triazepine-10-carboxamide] | 1 to 100 nM |
| C[C@@H]1Cc2nn3c(c2CN1C(=O)Nc1ccc(F)c(C(F)(F)F)c1)C(=O)N(C)N(C)CC3 [Compound 225, (R)-N-(4-fluoro-3-(trifluoromethyl)phenyl)-2,3,9-trimethyl-1-oxo-1,2,3,4,5,8,9,11-octahydro-10H-pyrido[4′,3′:3,4]pyrazolo[5,1-d][1,2,5]triazepine-10-carboxamide] | 1 to 100 nM |
| CN1NC(O)(C(F)(F)F)Cn2nc3c(c2C1=O)CN(C(=O)Nc1ccc(F)c(Cl)c1)CC3 (centres unmarked) [Compound 226, N-(3-chloro-4-fluorophenyl)-4-hydroxy-2-methyl-1-oxo-4-(trifluoromethyl)-1,2,3,4,5,8,9,11-octahydro-10H-pyrido[4′,3′:3,4]pyrazolo[5,1-d][1,2,5]triazepine-10-carboxamide] | > 1000 nM |
| CN1N=C(CO)Cn2nc3c(c2C1=O)CN(C(=O)Nc1ccc(F)c(Cl)c1)CC3 [Compound 227, N-(3-chloro-4-fluorophenyl)-4-(hydroxymethyl)-2-methyl-1-oxo-1,2,5,8,9,11-hexahydro-10H-pyrido[4′,3′:3,4]pyrazolo[5,1-d][1,2,5]triazepine-10-carboxamide] | 1 to 100 nM |
| CN1N=C(CO)Cn2nc3c(c2C1=O)CN(C(=O)Nc1ccc(F)c(C#N)c1)CC3 [Compound 228, N-(3-cyano-4-fluorophenyl)-4-(hydroxymethyl)-2-methyl-1-oxo-1,2,5,8,9,11-hexahydro-10H-pyrido[4′,3′:3,4]pyrazolo[5,1-d][1,2,5]triazepine-10-carboxamide] | 1 to 100 nM |
| CCC(O)C1=NN(C)C(=O)c2c3c(nn2C1)CCN(C(=O)Nc1ccc(F)c(Cl)c1)C3 (centres unmarked) [Compound 229, N-(3-chloro-4-fluorophenyl)-4-(1-hydroxypropyl)-2-methyl-1-oxo-1,2,5,8,9,11-hexahydro-10H-pyrido[4′,3′:3,4]pyrazolo[5,1-d][1,2,5]triazepine-10-carboxamide] | 100 to 500 nM |
| CC(O)C1=NN(C)C(=O)c2c3c(nn2C1)CCN(C(=O)Nc1ccc(F)c(Cl)c1)C3 (centres unmarked) [Compound 230, N-(3-chloro-4-fluorophenyl)-4-(1-hydroxyethyl)-2-methyl-1-oxo-1,2,5,8,9,11-hexahydro-10H-pyrido[4′,3′:3,4]pyrazolo[5,1-d][1,2,5]triazepine-10-carboxamide] | 1 to 100 nM |
| CN1N=C(C(O)C2CC2)Cn2nc3c(c2C1=O)CN(C(=O)Nc1ccc(F)c(Cl)c1)CC3 (centres unmarked) [Compound 231, N-(3-chloro-4-fluorophenyl)-4-(cyclopropyl(hydroxy)methyl)-2-methyl-1-oxo-1,2,5,8,9,11-hexahydro-10H-pyrido[4′,3′:3,4]pyrazolo[5,1-d][1,2,5]triazepine-10-carboxamide] | 100 to 500 nM |
| CC1=NN(C)C(=O)c2c3c(nn2C1)CCN(C(=O)Nc1ccc(F)c(Cl)c1)C3 [Compound 232, N-(3-chloro-4-fluorophenyl)-2,4-dimethyl-1-oxo-1,2,5,8,9,11-hexahydro-10H-pyrido[4′,3′:3,4]pyrazolo[5,1-d][1,2,5]triazepine-10-carboxamide] | 1 to 100 nM |
| C[C@@H]1Cc2nn3c(c2CN1C(=O)Nc1ccc(F)c(C#N)c1)C(=O)N(C)N=C(CO)C3 [Compound 233, (R)-N-(3-cyano-4-fluorophenyl)-4-(hydroxymethyl)-2,9-dimethyl-1-oxo-1,2,5,8,9,11-hexahydro-10H-pyrido[4′,3′:3,4]pyrazolo[5,1-d][1,2,5]triazepine-10-carboxamide] | 1 to 100 nM |
| C[C@@H]1Cc2nn3c(c2CN1C(=O)Nc1ccc(F)c(Br)c1)C(=O)N(C)N=C(CO)C3 [Compound 234, (R)-N-(3-bromo-4-fluorophenyl)-4-(hydroxymethyl)-2,9-dimethyl-1-oxo-1,2,5,8,9,11-hexahydro-10H-pyrido[4′,3′:3,4]pyrazolo[5,1-d][1,2,5]triazepine-10-carboxamide] | 1 to 100 nM |
| C[C@@H]1Cc2nn3c(c2CN1C(=O)Nc1ccc(F)c(Cl)c1)C(=O)N(C)N=C(CO)C3 [Compound 235, (R)-N-(3-chloro-4-fluorophenyl)-4-(hydroxymethyl)-2,9-dimethyl-1-oxo-1,2,5,8,9,11-hexahydro-10H-pyrido[4′,3′:3,4]pyrazolo[5,1-d][1,2,5]triazepine-10-carboxamide] | 1 to 100 nM |
| C[C@@H]1Cc2nn3c(c2CN1C(=O)Nc1ccc(F)c(Br)c1)C(=O)N(C)N=C(COCC(F)F)C3 [Compound 236, (R)-N-(3-bromo-4-fluorophenyl)-4-((2,2-difluoroethoxy)methyl)-2,9-dimethyl-1-oxo-1,2,5,8,9,11-hexahydro-10H-pyrido[4′,3′:3,4]pyrazolo[5,1-d][1,2,5]triazepine-10-carboxamide] | 1 to 100 nM |
| C[C@@H]1Cc2nn3c(c2CN1C(=O)Nc1ccc(F)c(C#N)c1)C(=O)N(C)N=C(COCC(F)F)C3 [Compound 237, (R)-N-(3-cyano-4-fluorophenyl)-4-((2,2-difluoroethoxy)methyl)-2,9-dimethyl-1-oxo-1,2,5,8,9,11-hexahydro-10H-pyrido[4′,3′:3,4]pyrazolo[5,1-d][1,2,5]triazepine-10-carboxamide] | 1 to 100 nM |
| C[C@@H]1Cc2nn3c(c2CN1C(=O)Nc1ccc(F)c(C(F)(F)F)c1)C(=O)N(C)N=C(COCC(F)F)C3 [Compound 238, (R)-4-((2,2-difluoroethoxy)methyl)-N-(4-fluoro-3-(trifluoromethyl)phenyl)-2,9-dimethyl-1-oxo-1,2,5,8,9,11-hexahydro-10H-pyrido[4′,3′:3,4]pyrazolo[5,1-d][1,2,5]triazepine-10-carboxamide] | 100 to 500 nM |
